Measurements reported in US4339427A, “Radioimmunoassay of thymosinα” (Hoffmann-la Roche Inc., priority 1980, dated 1982).
Where no end group is shown, it is not given here.

Test system: rabbit anti-thymosin α1 antiserum
Assay: radioimmunoassay for thymosin α1 (inhibition of tracer binding / cross-reactivity, double antibody method)
Conditions: for ED50 - Amount of protein (ng) required to produce a 50% inhibition in RIA: Table 1, 125I-[Tyr1]-thymosin α1 tracer
Description: a. Preparation of antisera
Synthetic thymosin α1 was coupled to Keyhole Limpet Hemocyanin (KLH) by means of glutaraldehyde using the following procedure. Equivalent amounts (dry weight) of each protein, thymosin α1 and hemocyanin, were dissolved in 0.25 M NaPO4, pH 7.0 buffer at a concentration of 2 mg/ml. […] The reaction was allowed to continue for 3 hours while being stirred at room temperature. The reaction mixture was diluted in sterile saline to a final concentration of thymosin α1 of 100 μg/ml. The solution of coupled thymosin α1 was aliquoted and stored at -20° C.
The mixture of products resulting from the cross-linking reactions carried out at room temperature was not fractionated or purified in any way. The thymosin α1 KLH conjugate was diluted with sterile normal saline and stored frozen for immunizations. Rabbits were immunized by administering 100 μg thymosin α1 (as the KLH conjugate) in emulsion with Ereund's Complete Adjuvant at 15-20 intradermal sites on the back of each rabbit according to the method of Vaitukaitis et al., J. Clin. Endoch. […] Weekly boosts of 50 μg thymosin α1 per animal in Freund's Incomplete Adjuvant were also administered at multiple intradermal sites.
b. Radioiodination of [Tyr^1 ]-thymosin α1
After a reaction time of 30 seconds at room temperature, the enzyme was inhibited by the addition of […]. […] The tracer was diluted 1:2,000 in immunoassay buffer to provide 4,000-5,000 cpm per assay tube, which is equivalent to less than 1 pg peptide mass per assay tube.
Separation of free from bound tracer is carried out by the addition of goat anti-rabbit gamma globulin serum, incubation for 1 hour at 37° C. and finally incubation at 4° C. for 16 hours. The immunoprecipitate is pelleted by centrifugation at 2500 rpm for 20 minutes, the supernatant is aspirated and discarded, and the radioactivity in the immunoprecipitate is counted in an automatic gamma spectrometer. The counts per minute for standards and unknowns are corrected for non-specific background and compared to the total counts per minute for the reaction tubes where no competing antigen was introduced.

| ED50 - Amount of protein (ng) required to produce a 50% inhibition in RIA | Molecule | further results |
| --- | --- | --- |
| > 200,000 ng | Cytochrome C (equine): Cytochrome C (equine) |  |
| > 50,000 ng | Transferrin (human): Transferrin (human) |  |
| 0.45 ng | Natural thymosin α1: heat stable, acidic polypeptide composed of 28 amino acid residues, isolated from calf thymus thymosin fraction 5 (SDAAVDTSSEITTKDLKEKKEVVEEAEN; ends and bridges not checked; UniProt P01252 2-29, looked up) |  |
| > 15,000 ng | TP.5: TP.5 (Ortho Pharmaceuticals) [reference compound] | cross-reactivity / competition in the RIA (in words): no cross-reactivity |
|  | thymopoietin II fragment 29-41: thymopoietin II fragment 29-41 (Bachem, Inc.) (AGEQRKDVYVQLY; UniProt P42167 29-41, looked up, fragment) [reference compound] | cross-reactivity / competition in the RIA (in words): no cross-reactivity |
| > 250,000 ng | Fetuin (bovine): Fetuin (bovine) |  |
| 0.40 ng | Synthetic thymosin α1: thymosin α1 obtained by peptide synthesis procedures (SDAAVDTSSEITTKDLKEKKEVVEEAEN; ends and bridges not checked; UniProt P06454 2-29, looked up) [reference compound] |  |
| > 160,000 ng | Erythopoietin (human): Erythopoietin (human) |  |
| > 250,000 ng | Serum albumin (bovine): Serum albumin (bovine) |  |
| > 200,000 ng | Hemoglobin (human): Hemoglobin (human) |  |
|  | thymosin α1: heat stable, acidic polypeptide composed of 28 amino acid residues (SDAAVDTSSEITTKDLKEKKEVVEEAEN; ends and bridges not checked; UniProt P06454 2-29, looked up) | ED50 (50% inhibition) of standard curve (RIA standard curve): 130 to 160 pg; operating range for the assay (RIA standard curve): 15 to 800 pg; slope at inflection point (50% inhibition) (RIA standard curve): -1.0; minimal detectable dose (10% inhibition) (RIA standard curve, typically): 8 to 15 pg |
|  | alpha-fetoprotein: oncodevelopmental antigen alpha-fetoprotein (Hoffmann-La Roche Inc.) (protein, UniProt P02771 19-609, looked up) Alpha-fetoprotein: RTLHRNEYGIASILDSYQCTAEISLADLATIFFAQFVQEATYKEVSKMVKDALTAIEKPTGDEQSSGCLENQLPAFLEELCHEKEILEKYGHSDCCSQSEEGRHNCFLAHKKPTPASIPLFQVPEPVTSCEAYEEDRETFMNKFIYEIARRHPFLYAPTILLWAARYDKIIPSCCKAENAVECFQTKAATVTKELRESSLLNQHACAVMKNFGTRTFQAITVTKLSQKFTKVNFTEIQKLVLDVAHVHEHCCRGDVLDCLQDGEKIMSYICSQQDTLSNKITECCKLTTLERGQCIIHAENDEKPEGLSPNLNRFLGDRDFNQFSSGEKNIFLASFVHEYSRRHPQLAVSVILRVAKGYQELLEKCFQTENPLECQDKGEEELQKYIQESQALAKRSCGLFQKLGEYYLQNAFLVAYTKKAPQLTSSELMAITRKMAATAATCCQLSEDKLLACGEGAADIIIGHLCIRHEMTPVNPGVGQCCTSSYANRRPCFSSLVVDETYVPPAFSDDKFIFHKDLCQAQGVALQTMKQEFLINLVKQKPQITEEQLEAVIADFSGLLEKCCQGQEQEVCFAEEGQKLISKTRAALGV | cross-reactivity / competition in the RIA (in words): do not cross-react |
| 50,000 ng | Myoglobin (equine): Myoglobin (equine) (protein, UniProt P68082 2-154, looked up) Myoglobin: GLSDGEWQQVLNVWGKVEADIAGHGQEVLIRLFTGHPETLEKFDKFKHLKTEAEMKASEDLKKHGTVVLTALGGILKKKGHHEAELKPLAQSHATKHKIPIKYLEFISDAIIHVLHSKHPGDFGADAQGAMTKALELFRNDIAAKYKELGFQG |  |
| > 25,000 ng | CEA: oncodevelopmental antigen, carcinoembryonic antigen (Hoffmann-La Roche Inc.) (protein, UniProt P06731 35-685, looked up) Cell adhesion molecule CEACAM5: KLTIESTPFNVAEGKEVLLLVHNLPQHLFGYSWYKGERVDGNRQIIGYVIGTQQATPGPAYSGREIIYPNASLLIQNIIQNDTGFYTLHVIKSDLVNEEATGQFRVYPELPKPSISSNNSKPVEDKDAVAFTCEPETQDATYLWWVNNQSLPVSPRLQLSNGNRTLTLFNVTRNDTASYKCETQNPVSARRSDSVILNVLYGPDAPTISPLNTSYRSGENLNLSCHAASNPPAQYSWFVNGTFQQSTQELFIPNITVNNSGSYTCQAHNSDTGLNRTTVTTITVYAEPPKPFITSNNSNPVEDEDAVALTCEPEIQNTTYLWWVNNQSLPVSPRLQLSNDNRTLTLLSVTRNDVGPYECGIQNELSVDHSDPVILNVLYGPDDPTISPSYTYYRPGVNLSLSCHAASNPPAQYSWLIDGNIQQHTQELFISNITEKNSGLYTCQANNSASGHSRTTVKTITVSAELPKPSISSNNSKPVEDKDAVAFTCEPEAQNTTYLWWVNGQSLPVSPRLQLSNGNRTLTLFNVTRNDARAYVCGIQNSVSANRSDPVTLDVLYGPDTPIISPPDSSYLSGANLNLSCHSASNPSPQYSWRINGIPQQHTQVLFIAKITPNNNGTYACFVSNLATGRNNSIVKSITVSASGTSPGLSA | cross-reactivity / competition in the RIA (in words): do not cross-react |

| Molecule | ED50 - Amount of protein (ng) required to produce a 50% inhibition in RIA | further results |
| --- | --- | --- |
| Glucagon (porcine): Glucagon (porcine) | > 500,000 ng |  |
| RPPGFSPFR [Bradykinin, reference compound] | > 50,000 ng |  |
| Insulin (porcine): Insulin (porcine) | > 200,000 ng |  |
